The structures appear in SMILES notation. Like-named read-outs stand apart in the source and are kept apart here.

The term IC50 denotes the concentration that gives 50% inhibition.

For test [1], the target named is c-Raf (Homo sapiens, UniProt P04049). Nature of the test: Luciferase-coupled chemiluminescence kinase assay (ATP consumption), c-Raf. It counts as biochemical. In short, it runs like this:
(§1)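 Pre-incub. kinase […] + cpd, 30 min RT (20 mM Tris pH 7.5, 10 mM MgCl2, 0.03% TX-100, 1 mM DTT). Start w/ ATP, 3 h ambient. Luciferase-luciferin mix added and luminescence read. Total ATP use 25-60%. IC50 derived.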

In test [2] the target is B-Raf (Homo sapiens, UniProt P15056). Nature of the test: Luciferase-coupled chemiluminescence kinase assay (ATP consumption), B-Raf. The class given is biochemical. The procedure, abridged: as §1
Where [3] appears, read: read-out: cRaf-1 (inhibition indicated as IC50).
[4] abbreviates: read-out: bRaf (inhibition indicated as IC50).

c-Raf, sequence (P04049 whole entry): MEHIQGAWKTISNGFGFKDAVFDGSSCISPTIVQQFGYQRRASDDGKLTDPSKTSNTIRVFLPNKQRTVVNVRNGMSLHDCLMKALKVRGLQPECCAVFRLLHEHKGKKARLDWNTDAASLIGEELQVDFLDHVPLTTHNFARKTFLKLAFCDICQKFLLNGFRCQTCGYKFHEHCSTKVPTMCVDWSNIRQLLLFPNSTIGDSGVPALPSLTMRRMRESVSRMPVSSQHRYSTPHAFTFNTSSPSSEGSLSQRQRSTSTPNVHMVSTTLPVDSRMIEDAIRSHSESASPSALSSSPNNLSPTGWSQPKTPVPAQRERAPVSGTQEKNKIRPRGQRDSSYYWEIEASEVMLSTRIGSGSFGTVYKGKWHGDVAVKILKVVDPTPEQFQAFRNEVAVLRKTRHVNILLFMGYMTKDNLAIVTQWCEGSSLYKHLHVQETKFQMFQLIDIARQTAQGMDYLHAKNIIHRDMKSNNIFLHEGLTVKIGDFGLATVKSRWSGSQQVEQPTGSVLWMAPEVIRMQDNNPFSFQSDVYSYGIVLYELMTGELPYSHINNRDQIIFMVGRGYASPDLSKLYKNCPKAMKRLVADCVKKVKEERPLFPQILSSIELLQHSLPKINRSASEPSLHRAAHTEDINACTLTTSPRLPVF
B-Raf, sequence (P15056 whole entry): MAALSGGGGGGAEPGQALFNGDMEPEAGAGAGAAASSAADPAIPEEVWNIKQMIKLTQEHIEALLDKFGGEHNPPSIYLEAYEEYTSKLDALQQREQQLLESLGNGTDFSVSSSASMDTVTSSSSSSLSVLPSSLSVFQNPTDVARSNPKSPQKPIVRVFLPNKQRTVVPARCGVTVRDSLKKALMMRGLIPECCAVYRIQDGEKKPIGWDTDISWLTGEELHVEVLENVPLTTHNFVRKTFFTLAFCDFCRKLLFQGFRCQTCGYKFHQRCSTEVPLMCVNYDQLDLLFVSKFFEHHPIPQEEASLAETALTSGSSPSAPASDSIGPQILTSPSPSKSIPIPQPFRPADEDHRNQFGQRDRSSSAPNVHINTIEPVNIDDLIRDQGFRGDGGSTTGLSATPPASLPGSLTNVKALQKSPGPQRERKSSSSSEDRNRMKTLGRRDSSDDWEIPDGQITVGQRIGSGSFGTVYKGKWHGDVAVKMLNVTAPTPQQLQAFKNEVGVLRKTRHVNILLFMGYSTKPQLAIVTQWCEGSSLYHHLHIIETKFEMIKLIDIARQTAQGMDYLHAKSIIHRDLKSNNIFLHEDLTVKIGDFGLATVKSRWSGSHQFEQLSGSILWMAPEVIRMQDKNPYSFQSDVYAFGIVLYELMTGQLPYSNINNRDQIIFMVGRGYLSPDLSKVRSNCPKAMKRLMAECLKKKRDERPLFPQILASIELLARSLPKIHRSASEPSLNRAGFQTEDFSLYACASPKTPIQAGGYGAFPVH

`COc1cc(C)nc(Nc2nc3cc(C4(O)c5ccccc5C(=O)N4c4cccc(Cl)c4F)ccc3[nH]2)n1` (stereo not shown) [Entry 387, 2-(3-chloro-2-fluorophenyl)-3-hydroxy-3-(2-{[4-methyl-6-(methyloxy)pyrimidin-2-yl]amino}-1H-benzimidazol-5-yl)-2,3-dihydro-1H-isoindol-1-one]: the half-inhibitory concentration (IC50) in test [1] (setting [3]) and in test [2] (setting [4]) was under 100 nM each time.
For `COC(=O)Nc1nc2ccc(C(=O)c3ccccc3C(=O)Nc3cc(Br)c(F)cc3F)cc2[nH]1` [Entry 410, methyl {6-[(2-{[(5-bromo-2,4-difluorophenyl)amino]carbonyl}phenyl)carbonyl]-1H-benzimidazol-2-yl}carbamate], the 50% inhibitory concentration (IC50) in test [1] (setting [3]) and in test [2] (setting [4]) was under 100 nM in each case.
As to `COC(=O)Nc1nc2cc(C3(O)c4ccccc4C(=O)N3c3cc(C)ccc3OC)ccc2[nH]1` (stereo not shown) [Entry 382, methyl (5-{1-hydroxy-2-[5-methyl-2-(methyloxy)phenyl]-3-oxo-2,3-dihydro-1H-isoindol-1-yl}-1H-benzimidazol-2-yl)carbamate], the half-maximal inhibitory concentration (IC50) in test [1] (setting [3]) and in test [2] (setting [4]) was under 100 nM throughout.
On to `COC(=O)Nc1nc2cc(C3(O)c4ccccc4C(=O)N3c3c(F)ccc(Cl)c3F)ccc2[nH]1` (stereo not shown) [Entry 322, methyl {5-[2-(3-chloro-2,6-difluorophenyl)-1-hydroxy-3-oxo-2,3-dihydro-1H-isoindol-1-yl]-1H-benzimidazol-2-yl}carbamate], for which the 50% inhibitory concentration (IC50) in test [1] (setting [3]) and in test [2] (setting [4]) was under 100 nM throughout.
Turning to `C#Cc1cc(Cl)cc(N2C(=O)c3ccccc3C2(O)c2ccc3[nH]c(NC(=O)OC)nc3c2)c1C` (stereo not shown) [Entry 351, methyl {5-[2-(5-chloro-3-ethynyl-2-methylphenyl)-1-hydroxy-3-oxo-2,3-dihydro-1H-isoindol-1-yl]-1H-benzimidazol-2-yl}carbamate], the IC50 in test [1] (setting [3]) was 100 to 1000 nM; in test [2] (setting [4]), under 100 nM.
Regarding `COC(=O)Nc1nc2cc(C3(O)c4ccccc4C(=O)N3c3cccc(C(C)(C)C)c3)ccc2[nH]1` (stereo not shown) [Entry 346, methyl (5-{2-[3-(1,1-dimethylethyl)phenyl]-1-hydroxy-3-oxo-2,3-dihydro-1H-isoindol-1-yl}-1H-benzimidazol-2-yl)carbamate], the IC50 in test [1] (setting [3]) and in test [2] (setting [4]) was under 100 nM in each case.
As for `CCc1cc(N2C(=O)c3ccccc3C2(O)c2ccc3[nH]c(NC(=O)OC)nc3c2)ccc1F` (stereo not shown) [Entry 238, methyl {5-[2-(3-ethyl-4-fluorophenyl)-1-hydroxy-3-oxo-2,3-dihydro-1H-isoindol-1-yl]-1H-benzimidazol-2-yl}carbamate], the IC50 in test [1] (read-out: cRaf-1 IC50) and in test [2] (read-out: bRaf IC50) was under 100 nM in each case.
With `COC(=O)Nc1nc2ccc(C(=O)c3ccccc3C(=O)Nc3cc(Cl)c(F)cc3F)cc2[nH]1` [Entry 411, methyl {6-[(2-{[(5-chloro-2,4-difluorophenyl)amino]carbonyl}phenyl)carbonyl]-1H-benzimidazol-2-yl}carbamate], the IC50 in test [1] (setting [3]) and in test [2] (setting [4]) was under 100 nM throughout.
As to `CCN(CC)C(=O)CCCC(=O)Nc1nc2cc(C3(O)c4ccccc4C(=O)N3c3cccc(Cl)c3F)ccc2[nH]1` (stereo not shown) [Entry 343, N′-{5-[2-(3-chloro-2-fluorophenyl)-1-hydroxy-3-oxo-2,3-dihydro-1H-isoindol-1-yl]-1H-benzimidazol-2-yl}-N,N-diethylpentanediamide], the 50% inhibitory concentration (IC50) in test [1] (setting [3]) and in test [2] (setting [4]) was under 100 nM each time.
On to `COC(=O)Nc1nc2cc(C3(O)c4ccccc4C(=O)N3C(C)c3cccc(C(F)(F)F)c3)ccc2[nH]1` (stereo not shown) [Entry 181, methyl [5-(1-hydroxy-3-oxo-2-{1-[3-(trifluoromethyl)phenyl]ethyl}-2,3-dihydro-1H-isoindol-1-yl)-1H-benzimidazol-2-yl]carbamate], for which the half-inhibitory concentration (IC50) in test [1] (read-out: cRaf-1 IC50) and in test [2] (read-out: bRaf IC50) was 1000 to 10000 nM in each case.
On to `O=C(Nc1nc2cc(C3(O)c4ccccc4C(=O)N3Cc3ccccc3)ccc2[nH]1)OCC(O)CO` (stereo not shown) [Entry 215, 2,3-dihydroxypropyl {5-[1-hydroxy-3-oxo-2-(phenylmethyl)-2,3-dihydro-1H-isoindol-1-yl]-1H-benzimidazol-2-yl}carbamate], for which the half-maximal inhibitory concentration (IC50) in test [1] (read-out: cRaf-1 IC50) and in test [2] (read-out: bRaf IC50) was under 100 nM throughout.
In the case of `COC(=O)Nc1nc2cc(C3(O)c4ccccc4C(=O)N3Cc3ccncc3)ccc2[nH]1` (stereo not shown) [Entry 112, methyl {5-[1-hydroxy-3-oxo-2-(pyridin-4-ylmethyl)-2,3-dihydro-1H-isoindol-1-yl]-1H-benzimidazol-2-yl}carbamate], the values for the 50% inhibitory concentration (IC50) in test [1] (read-out: cRaf-1 IC50) and in test [2] (read-out: bRaf IC50) were 1000 to 10000 nM and at least 10000 nM, respectively.
For the compound `O=C(Nc1nc2ccc(C3(O)c4ccccc4C(=O)N3c3cccc(Cl)c3F)cc2[nH]1)OCC1CCCO1` (stereo not shown) [Entry 337, tetrahydrofuran-2-ylmethyl {6-[2-(3-chloro-2-fluorophenyl)-1-hydroxy-3-oxo-2,3-dihydro-1H-isoindol-1-yl]-1H-benzimidazol-2-yl}carbamate], the half-maximal inhibitory concentration (IC50) in test [1] (setting [3]) and in test [2] (setting [4]) was under 100 nM throughout.
As to `CC(C)COC(=O)Nc1nc2cc(C3(O)c4ccccc4C(=O)N3Cc3ccccc3)ccc2[nH]1` (stereo not shown) [Entry 97, 2-methylpropyl {5-[1-hydroxy-3-oxo-2-(phenylmethyl)-2,3-dihydro-1H-isoindol-1-yl]-1H-benzimidazol-2-yl}carbamate], the concentration for half-maximal inhibition (IC50) in test [1] (read-out: cRaf-1 IC50) and in test [2] (read-out: bRaf IC50) was 100 to 1000 nM each time.
As to `COC(=O)Nc1nc2cc(C3(O)c4ccccc4C(=O)N3c3cc(Br)ccc3C)ccc2[nH]1` (stereo not shown) [Entry 305, methyl {5-[2-(5-bromo-2-methylphenyl)-1-hydroxy-3-oxo-2,3-dihydro-1H-isoindol-1-yl]-1H-benzimidazol-2-yl}carbamate], the half-maximal inhibitory concentration (IC50) in test [1] (setting [3]) and in test [2] (setting [4]) was under 100 nM throughout.
For the compound `C=CCCOC(=O)Nc1nc2cc(C3(O)c4ccccc4C(=O)N3Cc3ccccc3)ccc2[nH]1` (stereo not shown) [Entry 195, but-3-en-1-yl {5-[1-hydroxy-3-oxo-2-(phenylmethyl)-2,3-dihydro-1H-isoindol-1-yl]-1H-benzimidazol-2-yl}carbamate], the IC50 in test [1] (read-out: cRaf-1 IC50) and in test [2] (read-out: bRaf IC50) was under 100 nM each time.
For the compound `O=C(Nc1nc2cc(C3(O)c4ccccc4C(=O)N3c3ccc(F)cc3)ccc2[nH]1)OCCN1CCCCC1` (stereo not shown) [Entry 283, 2-piperidin-1-ylethyl {5-[2-(4-fluorophenyl)-1-hydroxy-3-oxo-2,3-dihydro-1H-isoindol-1-yl]-1H-benzimidazol-2-yl}carbamate], the IC50 is under 100 nM in test [1] (setting [3]) and 100 to 1000 nM in test [2] (setting [4]).
On the same counts, the results for `O=C1c2ccccc2C(O)(c2ccc3[nH]c(Nc4cnccn4)nc3c2)N1c1cccc(Cl)c1F` (stereo not shown) [Entry 361, 2-(3-chloro-2-fluorophenyl)-3-hydroxy-3-[2-(pyrazin-2-ylamino)-1H-benzimidazol-5-yl]-2,3-dihydro-1H-isoindol-1-one] are under 100 nM and under 100 nM.
As for `COC(=O)Nc1nc2cc(C3(O)c4ccccc4C(=O)N3c3cc(C)ccc3F)ccc2[nH]1` (stereo not shown) [Entry 380, methyl {5-[2-(2-fluoro-5-methylphenyl)-1-hydroxy-3-oxo-2,3-dihydro-1H-isoindol-1-yl]-1H-benzimidazol-2-yl}carbamate], the IC50 in test [1] (setting [3]) and in test [2] (setting [4]) was under 100 nM throughout.
With `CCOC(=O)Nc1nc2ccc(C3(O)c4ccccc4C(=O)N3c3cccc(Cl)c3F)cc2[nH]1` (stereo not shown) [Entry 340, ethyl {6-[2-(3-chloro-2-fluorophenyl)-1-hydroxy-3-oxo-2,3-dihydro-1H-isoindol-1-yl]-1H-benzimidazol-2-yl}carbamate], the IC50 in test [1] (setting [3]) and in test [2] (setting [4]) was under 100 nM in each case.

Values taken from US7846959B2, “Raf modulators and methods of use” (Exelixis, Inc., priority 2004, dated 2010).
